According to patent US11419913B2, “Pharmaceutical compositions for inhibiting inflammatory cytokines” (S.I.S. SHULOV INNOVATIVE SCIENCE LTD., priority 2018, dated 2022):
Marks after values point to notes of the source that are not given here. Where a SMILES comes first, the peptide text is derived from it.

Key:
TNF alpha [1] = experiment: Expression of TNF alpha by B6 macrophage cells treated with LPS and palmitic acid; format: cell-based, mouse
Experimental: Macrophages originating from C57BL/6 mice were cultured at a density of 200,000 cells/mL in a 24-well plate (500 μl wells) and incubated at 37° C. and 5% CO2 overnight. Following incubation, culture media in certain experimental groups were replaced with fresh media containing 100 ng/mL LPS, followed by three hours incubation. Then, the media (LPS-containing or LPS-free) in certain experimental groups were replaced with fresh media containing ZEP4 at concentrations ranging from 3.125 to 100 μg/ml, followed by one-hour incubation. Next, palmitic acid (PA, 200 μM) was added to the appropriate wells and the plates were incubated for additional 24 hours, then the amount of TNF alpha in each well was measured. Reduction in TNF alpha production in the treatment groups was calculated relative to cells treated with LPS and PA (CLP200).
Macrophages originating from C57BL/6 mice were cultured at a density of 200,000 cells/mL in a 24-well plate (500 μl wells) and incubated at 37° C. and 5% CO2 overnight. Following incubation, media were replaced with fresh media containing 100 ng/mL LPS, followed by three hours incubation. The LPS-containing media in the treatment groups were then replaced with fresh media containing ZEP4 at 50 μg/ml, followed by one-hour incubation. Then, aliquots of palmitic acid (100, 200 or 400 μM) were added to appropriate wells. The plates were incubated for additional 24 hour and the amount of TNF alpha in each well was measured. Reduction in TNF alpha production in the treatment groups was calculated relative to cells treated with LPS and PA, according to the PA concentration.
Macrophage cells originating from C57BL/6 mice were cultured at a density of 200,000 cells/mL in a 24-well plate (500 μl wells) and incubated at 37° C. and 5% CO2 overnight. Following incubation, media in certain experimental groups were replaced with fresh media containing 100 ng/mL LPS, followed by three hours incubation. Then, the media (LPS-containing or LPS-free) in certain experimental groups were replaced with fresh media containing ZEP3 at a concentration ranging from 3.125 to 100 μg/ml, followed by one-hour incubation. Next, palmitic acid (200 μM) aliquots were added to the appropriate wells and the plates were incubated for additional 24 hours, then the amount of TNF alpha in each well was measured. Reduction in TNF alpha production in the treatment groups was calculated relative to cells treated with LPS and PA.

IL-1beta = experiment: Expression of IL-1 beta by Nigericin-activated macrophages; format: cell-based, mouse; design: IL-1beta: unit not given here; details: ZEP4 50 μg/mL, LPS 100 ng/mL, Nigericin 20 mM
Experimental: Macrophage cells originating from C7BL/6 mice were cultured at a density of 200,000 cells/mL in a 24-well plate (500 μl wells) and incubated at 37° C. and […] overnight. Following the overnight incubation, media were replaced with fresh media containing 100 ng/mL LPS. Three hours later, the LPS-containing media were replaced with fresh media containing 50 μg/ml ZEP4 to treatment wells. Following one-hour incubation, Nigericin (20 mM) aliquots were added to the ZEP4 treated and LPS control wells. The plates were incubated for additional 24 hour and the amount of IL-1beta in each well was measured. Reduction in […] production in the treatment group was calculated relative to cells treated with LPS and nigericin (LPS+N).

[2] = test system: oxazolone-induced atopic dermatitis (AD) mouse models; experiment: Oxazolone-induced atopic dermatitis mouse model, clinical lesions; format: in vivo
Experimental: The effect of topical administration of ZEP3 (SEQ ID NO: 1), and its sodium salt form (ZEP3Na), and ZEP4 (SEQ ID NO: 2) was evaluated in oxazolone-induced atopic dermatitis (AD) mouse models. This model is widely used and well described in literature (Avci et al. 2013 Expert Opin Drug Discov. 8, 331-355; Petersen T. K. 2006, Basic Clin. Pharmacol. Toxicol. 99, 104-115) as an accepted animal model for evaluating drugs for AD therapy in humans.

TNF alpha [3] = experiment: TNF alpha secretion in LPS treated human keratinocytes (ELISA); format: cell-based; details: compared with cells stimulated with LPS alone
Experimental: Methods: SCCE020 cells (EpiGRO™ Human Epidermal Keratinocytes) were grown in complete growth medium (EpiGRO™ Human Keratinocytes Complete Medium; Millipore Cat. #SCMK001) for 4 passages. At passage 5, cells were seeded (3*10^5 cells/well) in triplicates in a volume of 1 ml complete growth medium per well. Additional 3 control wells contained only medium without cells. Upon adherence, cell medium was replaced by basal medium containing L-Glutamine without supplements (starvation medium) and cells were starved overnight. The next day, 24 hours after seeding, the cells were treated with ZEP3 or ZEP3Na or appropriate diluent (PBS or DMSO). After 4 hours of incubation, LPS (from E. Coli 055: B5; Sigma Cat. #L6529-1MG) was added to the wells in final concentration of 20 or 30 μg/ml.
Cells were incubated for 24 hours in tissue culture incubator. After collecting cell supernatants from all wells, cells from treatment groups: 1, 2, 3, 8, 9, 10, 13, 14 (without DMSO groups) were pelleted and stored at −80° C. for further analyses. The cells were collected from as following: upon supernatants collection, the wells were rinsed with trypsin, then incubated with trypsin until they detached from the plate surface, centrifuged, washed with PBS and stored as a cell pellet. TNF-α concentration in the supernatants was measured by ELISA (Quantikine HS ELISA; R&D Systems Cat. #HSTA00D), in 5 replicates.
TNF alpha concentration in the samples was calculated according to the standard curve trend line equation: =0.063x+0.1718. Percent inhibition of TNF alpha production was calculated in each treatment group in comparison to the corresponding control group (same conditions, without peptide).

[4] = Oxazolone-induced atopic dermatitis mouse model, tolerability and bodyweights
Experimental: Method: Animals were sensitized by topical administration of oxazolone 2% in ethanol on the back at Day 0 after shaving and depilation of the animals (sensitization phase). Then a challenge was performed one week later by topical administration of oxazolone 1% in ethanol on the back and on right ear every 2 days at 10 occasions namely for total 3 weeks. The tested compounds were applied during the challenge phase every 2 days via the topical route as ready to use cream formulations. The surface of application was the same as for challenge (back+ear). 100 μL were deposited on the back and the back was smoothly massaged. Then, remaining formulation on finger glove was deposited on the internal face of the ear. Every other day, back skin and ears thickness were measured using caliper; and the following clinical scores were recorded from back skin: erythema and scaling. Animals were also weighed every other day (approximate bodyweights of a mouse at startup is about 20 g).
The formulations used for topical administration of the tested compound were: ZEP3 1% cream having pH 7.1 and comprising: Propylene glycol, Polysorbate 80, Edetate Disodium, Silicon dioxide (syloid), Methylparaben, White petrolatum, Isopropyl Myristate, Cetyl Alcohol and Glyceryl Monostearate. ZEP3Na 1% cream having pH 8.0 and comprising: Propylene glycol, Polysorbate 80, Edetate Disodium, Silicon dioxide (syloid), Methylparaben, White petrolatum, Isopropyl Myristate, Cetyl Alcohol and Glyceryl Monostearate. ZEP4 1% cream having pH 4.5 and comprising: Propylene glycol, Glycerin, Polysorbate 80, EDTA Disodium, Xanthan Gum, Silicon dioxide (syloid), Methylparaben, White petrolatum, Isopropyl Myristate, Cetyl Alcohol, Stearyl Alcohol, and Glyceryl Monostearate (kolliwax).

C[C@@H](O)[C@H](NC(=O)[C@H](Cc1c[nH]c2ccccc12)NC(=O)[C@H](CC(N)=O)NC(=O)[C@@H]1CCC(=O)N1)C(=O)O [ZEP4, pGlu-Asn-Trp-Thr-OH] (HELM PEPTIDE1{[Glp].N.W.T}$$$$V2.0)
TNF alpha (TNF alpha [1]; Table 2: ZEP4 50 μg/ml, LPS 100 ng/ml, palmitic acid 100 μM): 133.93 pg/mL | % reduction of TNF alpha (TNF alpha [1]; Table 2: ZEP4 50 μg/ml, LPS 100 ng/ml, palmitic acid 100 μM, relative to LPS and PA 100 μM): 67.8**** % | TNF alpha (TNF alpha [1]; Table 2: ZEP4 50 μg/ml, LPS 100 ng/ml, palmitic acid 200 μM): 167.52 pg/mL | % reduction of TNF alpha (TNF alpha [1]; Table 2: ZEP4 50 μg/ml, LPS 100 ng/ml, palmitic acid 200 μM, relative to LPS and PA 200 μM): 63.7**** % | TNF alpha (TNF alpha [1]; Table 2: ZEP4 50 μg/ml, LPS 100 ng/ml, palmitic acid 400 μM): 252.177 pg/mL | % reduction of TNF alpha (TNF alpha [1]; Table 2: ZEP4 50 μg/ml, LPS 100 ng/ml, palmitic acid 400 μM, relative to LPS and PA 400 μM): 57.5**** % | TNF alpha (TNF alpha [1]; peptide 3.125 μg/ml, LPS 100 ng/mL, palmitic acid 200 μM, 24 hours): 97.79 pg/mL | % reduction of TNF alpha (TNF alpha [1]; peptide 3.125 μg/ml, LPS 100 ng/mL, palmitic acid 200 μM, relative to cells treated with LPS and PA): 70.6% | TNF alpha (TNF alpha [1]; peptide 6.25 μg/ml, LPS 100 ng/mL, palmitic acid 200 μM, 24 hours): 89.83 pg/mL | % reduction of TNF alpha (TNF alpha [1]; peptide 6.25 μg/ml, LPS 100 ng/mL, palmitic acid 200 μM, relative to cells treated with LPS and PA): 73.0% | TNF alpha (TNF alpha [1]; peptide 12.5 μg/ml, LPS 100 ng/mL, palmitic acid 200 μM, 24 hours): 93.12 pg/mL | % reduction of TNF alpha (TNF alpha [1]; peptide 12.5 μg/ml, LPS 100 ng/mL, palmitic acid 200 μM, relative to cells treated with LPS and PA): 72.0% | TNF alpha (TNF alpha [1]; peptide 25 μg/ml, LPS 100 ng/mL, palmitic acid 200 μM, 24 hours): 115.58 pg/mL | % reduction of TNF alpha (TNF alpha [1]; peptide 25 μg/ml, LPS 100 ng/mL, palmitic acid 200 μM, relative to cells treated with LPS and PA): 65.2% | TNF alpha (TNF alpha [1]; peptide 50 μg/ml, LPS 100 ng/mL, palmitic acid 200 μM, 24 hours): 76.23 pg/mL | % reduction of TNF alpha (TNF alpha [1]; peptide 50 μg/ml, LPS 100 ng/mL, palmitic acid 200 μM, relative to cells treated with LPS and PA): 77.0% | TNF alpha (TNF alpha [1]; peptide 100 μg/ml, LPS 100 ng/mL, palmitic acid 200 μM, 24 hours): 211.68 pg/mL | % reduction of TNF alpha (TNF alpha [1]; peptide 100 μg/ml, LPS 100 ng/mL, palmitic acid 200 μM, relative to cells treated with LPS and PA): 36.3% | TNF alpha (TNF alpha [1]; peptide control: peptide 100 μg/ml, no LPS, no palmitic acid): 0 pg/mL | IL-1beta (IL-1beta; 24 hour): 157.1 | % reduction of IL-1beta (IL-1beta; relative to LPS and nigericin (LPS+N)): 53.8% | Scaling: period of reduction ([2]; 1% cream topical, 50 mg/kg, scaling score of back skin): from days 14 to 24 | Significant difference on back thickness vs. control group 1 ([2]; day 14): −13.5% | Right ear thickness, significant difference in comparison to control ([2]; days 20, 22 and 28): −12.3 to −16.0% | Erythema scoring: days with a significant difference ([2]; vs control group): days 12, 16, 22 and 24 | total score: days with significant difference ([2]; vs control group): days 12-20, 24 and 28 | TNF alpha levels / production in LPS treated human keratinocytes (in words) (TNF alpha [3]): effectively diminished | tolerability ([4]; 50 mg/kg topical to atopic dermatitis induced mice): well tolerated | Bodyweights in comparison to the excipient ([4]; day 8 to day 28): behaved normally
